We go through 39 compounds from PubChem BioAssay AID2842 (Southern Research Institute, 2010).

This test relates to M. tuberculosis H37Rv growth inhibition. Nature of the test: Mycobacterium tuberculosis H37Rv growth inhibition, putative kinase inhibitor library, confirmatory dose response (AID 2842).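 Also: bacteria incubated one week before Alamar blue readout.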

Broadly, the IC90 is the point of the concentration-response curve where the effect stands at 90%.

SMILES strings stand for the structures. ≈ marks a conversion by molar mass, not a printed value.

Take `COc1cccc(C(=O)N(CCCn2ccnc2)c2nc3c(C)cccc3s2)c1OC`: the IC90 was 4.2 µg/mL (≈ 9.62 µM).

`CCOC(=O)c1ccc(-n2cc(O)c(C(=O)OCC)n2)cc1`: the IC90 is 20 µg/mL (≈ 65.7 µM).

For the compound `CS(=O)(=O)c1ccc(CC(=O)Nc2nnc(-c3ccc4c(c3)CCCC4)o2)cc1`, the IC90 was 13.9 µg/mL (≈ 33.7 µM).

On to `COc1ccc(-c2nnc3c4cc(OC)c(OC)cc4n(Cc4ccc(C)cc4)cc2-3)cc1`, for which the IC90 was 95.4 µg/mL (≈ 217 µM).

For the compound `CC(C)N1CCc2c(sc(NC(=O)c3nc4ccccc4s3)c2C(N)=O)C1`, the IC90 is 12.9 µg/mL (≈ 32.3 µM).

Take `Cc1ccc(-c2nnc(NC(=O)c3cccc(Oc4ccccc4)c3)o2)c(C)c1`: the IC90 is 25.3 µg/mL (≈ 65.5 µM).

Regarding `COc1cccc(Cn2cc3c(-c4ccc(Cl)cc4)nnc-3c3cc(OC)c(OC)cc32)c1`, the IC90 was 15.2 µg/mL (≈ 33.1 µM).

`O=C(Nc1nnc(-c2cccnc2)o1)c1ccccc1Cl`: the IC90 is 53.5 µg/mL (≈ 178 µM).

With `CCCCCOc1ccc(C(=O)Nc2nnc(-c3ccccn3)o2)cc1`, the IC90 was 2.15 µg/mL (≈ 6.1 µM).

Regarding `CC1(C)Cc2c(sc(NC(=O)c3ccc(Cc4ccccc4)cc3)c2C(N)=O)C(C)(C)N1`, the IC90 is 10.4 µg/mL (≈ 23.3 µM).

Take `COc1cccc(C(=O)Nc2nnc(-c3ccc(C)cc3C)o2)c1`: the IC90 was 20.8 µg/mL (≈ 64.2 µM).

As to `Cc1ccc(-c2nnc(NC(=O)c3cc4ccccc4oc3=O)o2)c(C)c1`, the IC90 was 1.36 µg/mL (≈ 3.76 µM).

As for `COc1ccc(-c2nnc3c4cc(OC)c(OC)cc4n(Cc4ccccc4)cc2-3)cc1`, the IC90 was 11 µg/mL (≈ 25.8 µM).

Consider `COc1ccc(-c2cc3ccccc3n2CC(O)CNCCc2ccccc2)cc1` (centres undefined), for which the IC90 is 4.11 µg/mL (≈ 10.3 µM).

Regarding `O=C(Nc1nc(-c2nc3ccccc3s2)cs1)C1COc2ccccc2O1` (centres undefined), the IC90 is 26.8 µg/mL (≈ 67.8 µM).

As for `O=C(Nc1nnc(-c2cc(Cl)ccc2Cl)o1)c1ccc2c(c1)CCCC2`, the IC90 is 25.8 µg/mL (≈ 66.5 µM).

`O=C(Nc1nnc(-c2ccco2)o1)c1ccc([N+](=O)[O-])cc1`: the IC90 was 35.8 µg/mL (≈ 119 µM).

`Cc1cccc(N2CCN(C(=O)CCCCCn3c(=O)[nH]c4ccsc4c3=O)CC2C)c1` (centres undefined): the IC90 is 19.5 µg/mL (≈ 42.9 µM).

For `c1c2c(cc3sc(N4CCCC4)nc13)OCO2`, the concentration for an effect of 90% (IC90) is below 0.2 µg/mL.

Regarding `CCc1ccc(-c2nnc3c4cc5c(cc4n(Cc4ccccc4F)cc2-3)OCCO5)cc1`, the IC90 is 6.34 µg/mL (≈ 14.4 µM).

Regarding `CCOc1ccc2c(c1)c1nnc(-c3ccc(OC)cc3)c-1cn2Cc1cccc(C)c1`, the IC90 is 20.7 µg/mL (≈ 48.9 µM).

With `O=C(Nc1nnc(-c2cc(Cl)ccc2Cl)o1)c1ccco1`, the IC90 is 27.5 µg/mL (≈ 84.8 µM).

On to `O=c1cnnc(N/N=C/c2ccccc2O)[nH]1`, for which the IC90 is 0.46 µg/mL (≈ 1.99 µM).

For the compound `COC(=O)c1c(NC(=O)c2ccccc2Cl)sc2c1CC(C)(C)NC2(C)C`, the IC90 was 44.8 µg/mL (≈ 110 µM).

On to `c1ccc(-c2csc(Nc3nc4cc5c(cc4s3)OCO5)n2)nc1`, for which the IC90 was 1.79 µg/mL (≈ 5.05 µM).

For `Cc1ccc(C)c(-c2nnc(NC(=O)c3ccc(Cl)s3)o2)c1`, the IC90 was 26.4 µg/mL (≈ 79.2 µM).

`O=C(Nc1nnc(-c2ccc(Cl)cc2)o1)c1ccc(Br)cc1`: the IC90 was 3.26 µg/mL (≈ 8.61 µM).

In the case of `CC(=O)N1CCc2c(sc(NC(=O)c3ccc(C)cc3)c2C(N)=O)C1`, the IC90 is 8.93 µg/mL (≈ 25 µM).

With `CCOC(=O)N1CCc2c(sc(NC(=O)c3ccc(F)cc3)c2C(N)=O)C1`, the concentration for an effect of 90% (IC90) was 1.89 µg/mL (≈ 4.83 µM).

Consider `Cc1ccccc1C(=O)Nc1nnc(-c2ccccn2)o1`, for which the IC90 was 15.2 µg/mL (≈ 54.2 µM).

`Cc1ccc(C)c(-c2nnc(NC(=O)c3ccc(C#N)cc3)o2)c1`: the 90% effect concentration (IC90) is 23.1 µg/mL (≈ 72.5 µM).

For the compound `Cc1cc(C)c2nc(NNC(=O)c3nc4ccccc4s3)sc2c1`, the IC90 was 4.23 µg/mL (≈ 11.9 µM).

`COc1ccc(Cl)cc1NC(=O)NC1CC(=O)N(c2ccc(C)c(C)c2)C1` (centres undefined): the IC90 was 28.5 µg/mL (≈ 73.5 µM).

Turning to `O=c1[nH]c(N/N=C/c2cccs2)nnc1-c1ccccc1`, the IC90 was 21.6 µg/mL (≈ 72.5 µM).

Turning to `Cc1ccc2sc(N(CCCn3ccnc3)C(=O)COc3ccccc3)nc2c1C`, the IC90 is 5.39 µg/mL (≈ 12.8 µM).

`CC1(C)COCN1S(=O)(=O)c1ccc(C(=O)Nc2nnc(-c3ccc(F)cc3)o2)cc1`: the IC90 was 23.3 µg/mL (≈ 52.1 µM).

As for `CSc1cccc2sc(Nc3ccc(Cl)cc3)nc12`, the IC90 was 2.31 µg/mL (≈ 7.53 µM).

On to `CCOC(=O)COc1ccc2c(C)c(-c3ccc(OC)c(OC)c3)c(=O)oc2c1`, for which the IC90 was 2.34 µg/mL (≈ 5.87 µM).

As to `Cc1ccc(C)c(-c2nnc(NC(=O)c3ccc(OC(C)C)cc3)o2)c1`, the IC90 is 33.4 µg/mL (≈ 95 µM).
